Three compounds from patent US20040171688A1, “Carboxylic acids and derivatives thereof and pharmaceutical compositions containing them” (priority 1997, published 2004) can be followed below.

The target in experiment [1] is T1, HNF-4α (Rattus norvegicus, UniProt P22449).
T1 construct: GST-HNF-4α(LBD) fusion protein consisting of amino acids 96-455 of wild type HNF-4α fused to GST; fused on or other part: Glutathione-S-transferase (GST) at the N-terminus of the LBD construct; 6-histidine tag on the full-length construct
T1 sequence (P22449 105-464 isoform P22449-2 limits assumed): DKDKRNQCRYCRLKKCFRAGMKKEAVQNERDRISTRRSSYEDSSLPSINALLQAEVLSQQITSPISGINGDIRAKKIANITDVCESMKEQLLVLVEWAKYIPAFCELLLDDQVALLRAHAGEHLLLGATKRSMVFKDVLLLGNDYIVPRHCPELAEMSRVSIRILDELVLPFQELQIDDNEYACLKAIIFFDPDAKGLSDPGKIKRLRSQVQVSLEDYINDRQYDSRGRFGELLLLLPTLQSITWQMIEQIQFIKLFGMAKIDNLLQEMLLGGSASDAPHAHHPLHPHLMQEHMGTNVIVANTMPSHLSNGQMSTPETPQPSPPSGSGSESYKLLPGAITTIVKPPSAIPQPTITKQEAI
The experiment in a line: Ligand binding assay with [3H]palmitoyl(16:0)-CoA on recombinant GST-HNF-4α(LBD) or His-HNF-4α. Conditions: competition with 8 nM [3H]palmitoyl(16:0)-CoA; GST-HNF-4α(LBD) or His-HNF-4α; read-out: EC50 (50% specific competition). The procedure: a. […] The respective recombinant proteins are incubated to equilibrium with [^3H]palmitoyl(16:0)-CoA (0.05 μCi) and with increasing nonlabeled palmitoyl(16:0)-CoA as indicated.
b. […] The respective recombinant proteins are incubated with 8 nM of [^3H]palmitoyl(16:0)-CoA (60 Ci/mmol) and with increasing nonlabeled myristoyl(14:0)-CoA as indicated. Percent bound refers to radiolabeled [^3H]palmitoyl(16:0)-CoA in the bound fraction. […] Percent bound refers to radiolabeled [^3H]palmitoyl(16:0)-CoA in the bound fraction.
Rat HNF-4α1 cDNA(pLEN4S)^1 was subcloned into the glutathione-S-transferase (GST) encoding pGEX-2T plasmid (Pharmacia) and the resultant plasmid was cleaved with smaI and AccI and religated to yield the GST-HNF-4α(LBD) fusion plasmid. […] The full length HNF-4α1 cDNA cloned into 6His-pET11d vector was expressed in E.coli BL21 (DE3)plysS.
Recombinant GST-HNF-4α(LBD) (100 pmol) or His-HNF-4α (100 pmol) were incubated for 60 min at 22° C. with [^3H]palmitoyl(16:0)-CoA (American RadiolabeledChemicals) in 100 μl of 10 mM phosphate buffer (pH 7.4). Competitor ligands or solvent carrier were added as indicated. Free and HNF-4α bound ^3[H]palmitoyl(16:0)-CoA were separated by […] and bound ligand was quantified by liquid scintillation counting. Nonspecific binding of [^3H]palmitoyl(16:0)-CoA was determined by its binding to the GST moiety or to carbonic anhydrase as nonrelevant protein.
Binding was exemplified with either the ligand binding domain of HNF-4α fused to glutathione-s-transferase (GST-HNF-4α(LBD)) or the full length HNF-4α protein tagged by 6 histidines (His-HNF-4α).

Experiment [2] has as its target T2, HNF-4α (Rattus norvegicus, UniProt P22449).
T2 sequence (P22449 1-464 isoform P22449-2): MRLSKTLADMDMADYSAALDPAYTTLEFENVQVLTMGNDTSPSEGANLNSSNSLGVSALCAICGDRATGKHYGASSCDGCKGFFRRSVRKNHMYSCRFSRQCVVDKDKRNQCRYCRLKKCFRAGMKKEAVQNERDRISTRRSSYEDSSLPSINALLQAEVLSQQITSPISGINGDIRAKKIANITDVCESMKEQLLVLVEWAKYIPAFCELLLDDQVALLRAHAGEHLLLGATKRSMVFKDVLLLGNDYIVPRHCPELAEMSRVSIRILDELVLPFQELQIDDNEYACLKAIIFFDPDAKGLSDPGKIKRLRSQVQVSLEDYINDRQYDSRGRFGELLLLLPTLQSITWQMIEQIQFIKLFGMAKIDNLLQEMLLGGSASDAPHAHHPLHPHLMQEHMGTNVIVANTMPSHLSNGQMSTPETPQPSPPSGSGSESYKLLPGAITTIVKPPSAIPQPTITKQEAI
Nature of the experiment: Gel mobility shift assay: His-HNF-4α binding to C3P apo CIII promoter oligonucleotide. Format: biochemical. On the set-up: The full length HNF-4α1 cDNA cloned into 6His-pET11d vector was expressed in E.coli BL21 (DE3)plysS; 6His; made in house; host or cells: E. coli BL21 (DE3)plysS. Conditions: for direct effect on HNF-4α (summary): summary statement of Example 4. How it is done:
a. His-HNF-4I (14 ng) binding to C3P in the absence (lane 1) or presence of 10 μM each of myristoyl(14:0)-CoA (lane 2) or palmitoyl(16:0)-CoA (lane 3).
b. His-HNF-4I (20 ng) binding to C3P in the absence (lane 1) or presence of 10 μM each of stearoyl(18:0)-CoA (lane 2) or linolenoyl(18:3, w-3)-CoA (lane 3).
c. Activation of His-HNF-4I (14 ng) binding to C3P by increasing concentrations of myristoyl(14:0)-CoA. The gel section containing radiolabeled C3P bound to His-HNF-4I dimer is shown.
His-HNF-4α and acyl-CoA (as indicated) were preincubated for 30 min at 22° C. in 11 mM Hepes (pH 7.9) containing 50 mM KCl, 1 mM dithiothreitol. 2.5 mM MgCl2, 10% glycerol, 1 μg of poly(dI-dC) in a final volume of 20 μl. ^32P-labeled oligonucleotide (0.1 ng) consisting of the human C3P apo CIII promoter sequence,(−87/−66)^6 was then added, and incubation was continued for an additional 15 min. Protein-DNA complexes were resolved by 5% nondenaturing polyacrylamide gel in 0.6×TBE and quantitated by PhosphorImager analysis.
HNF-4α activity as a function of binding of long chain acyl-CoAs was evaluated by studying the binding of HNF-4α to its cognate C3P element of the apo CIII promoter sequence (−87/−66)^6 in the presence or absence of added acyl-CoAs of variable chain length, degree of saturation, and degree of substitution. Binding was verified by using a gel mobility shift assay. […] Activation was concentration dependent and maximal in the presence of myristoyl(14:0)-CoA added within a concentration range required for its binding to HNF-4α.

A word on the EC50: it is the concentration giving half of the maximal effect. As for `CC/C=C\C/C=C\C/C=C\C/C=C\C/C=C\C/C=C\CCC(=O)SCCNC(=O)CCNC(=O)[C@H](O)C(C)(C)COP(=O)(O)OP(=O)(O)OC[C@H]1O[C@@H](n2cnc3c(N)ncnc32)[C@H](O)[C@@H]1OP(=O)(O)O` [Docosahexaenoyl(22:6)-CoA], the EC50 in experiment [1] was 1600 nM. In addition, in experiment [2], the “direct effect on HNF-4α (summary)” value is recorded as “direct inhibition”.

Turning to `CC/C=C\C/C=C\C/C=C\C/C=C\C/C=C\CCCC(=O)SCCNC(=O)CCNC(=O)[C@H](O)C(C)(C)COP(=O)(O)OP(=O)(O)OC[C@H]1O[C@@H](n2cnc3c(N)ncnc32)[C@H](O)[C@@H]1OP(=O)(O)O` [Eicosapentaenoyl(20:5)-CoA], in experiment [1], the EC50 was determined as 600 nM. Moreover, in experiment [2], the “direct effect on HNF-4α (summary)” value was “direct inhibition”.

With `CC/C=C\C/C=C\C/C=C\CCCCCCCC(=O)SCCNC(=O)CCNC(=O)[C@H](O)C(C)(C)COP(=O)(O)OP(=O)(O)OC[C@H]1O[C@@H](n2cnc3c(N)ncnc32)[C@H](O)[C@@H]1OP(=O)(O)O` [Linolenoyl(18:3)-CoA], the “effect on His-HNF-4α binding to C3P oligonucleotide” value in experiment [2] (gel mobility shift, 10 μM acyl-CoA (FIG. 2)) is “potent inhibition”. Also, the “direct effect on HNF-4α (summary)” value in experiment [2] is recorded as “direct inhibition”.
